Data as given in a melting point compilation (Tetko et al.; mined from patent text by program, amines drawn as free bases though some values may be those of a salt).

Row | Structure (SMILES) | melting point
1 | COc1cc(C#Cc2cnc(N)nc2N)cc(OC)c1OC | 202 to 204 °C
2 | N#Cc1c[nH]c2ccc([N+](=O)[O-])cc12 | 186 to 190 °C
3 | O=C1N(Cc2ccc(C(F)(F)F)o2)c2cccc(Br)c2C12COc1cc3c(cc12)CCO3 (stereo not drawn) | 165 to 167 °C
4 | CC(C)n1c(C=O)c(-c2ccc(F)cc2)c(-c2ccc(F)cc2)c1C(=O)Nc1cccc(C(=O)N(C)C)c1 | 133 to 135 °C
5 | CCOc1nn(C(=O)NS(=O)(=O)c2c(C(=O)OC)csc2C)c(=O)n1C | 163 °C
6 | NCCc1ccc(N)cn1 | 42 to 45 °C
7 | CCCCCCNc1ccc(N=O)cc1 | 46 to 48 °C
8 | CCOC(=O)C(=Cc1ccc(-c2ccc(Cl)cc2)o1)C(=O)OCC | 78 to 80 °C
9 | O=Cc1cc(OCCCC(=O)N(CCO)CCCCC2CCCC2)ccc1[N+](=O)[O-] | 107 to 108 °C
10 | O=C(Nc1ccc(F)cc1)O[C@@H]1CN=C(c2ccccc2)O[C@H]1c1ccccc1 (racemic) | 158 °C
11 | O=C1OC(=O)c2c(Cl)c(Sc3ccccc3)c(Cl)c(Cl)c21 | 162 to 164 °C
12 | CCCC(=O)N(CC)c1cccc(-c2ccc3nnc(C)n3n2)c1 | 127 to 129 °C
13 | CCC(O)(CC)c1csc(-c2cccc(OCc3ccc(CO)c(CO)c3)c2)c1 | 47 °C
14 | O=[N+]([O-])C=CC1=CCN(c2ccccc2)N1 | 150 °C
15 | ClC1=NC(C2CC2)Nc2cscc21 (stereo not drawn) | 86.5 to 88.5 °C
16 | CC(C)(Oc1ccc(CCC(=O)c2ccc(-c3ccccc3)s2)c(Cl)c1Cl)C(=O)O | 179 to 180 °C
17 | CC(C)CP(=O)(CCC(=O)O)CCC(=O)O | 186 to 187 °C
18 | O=C(O)/C=C/c1cc(OCC2CC2)nn1Cc1ccc(C(F)(F)F)cc1Cl | 195 to 196 °C
19 | CC1(C)[C@@H](CN2CCCS2(=O)=O)CC[C@@]1(C)NCC(=O)N1C[C@@H](F)C[C@H]1C#N | 126 to 128 °C
20 | CSc1nn2c(N3CCN(C)CC3)cc(Cl)nc2c1S(=O)(=O)c1ccccc1 | > 230 °C
21 | Cc1cn(N=Cc2cccnc2)c(=O)n1N=Cc1cccnc1 | 176 to 178 °C
22 | COc1ccc(NN=C(Sc2ccc(CF)cc2)C(C)=O)cc1 | 103 to 104 °C
23 | O=C1CCC(NC(=O)OCc2ccccc2)(C(=O)OCc2ccc([N+](=O)[O-])cc2)O1 (stereo not drawn) | 127 to 128 °C

Row | Structure (SMILES) | melting point
24 | O=C(N[C@H](Cc1ccccc1)C(=O)O)C1CCCC1 | 102 to 104 °C
25 | Cc1cc(N)c(C)nc1OC(F)F | 38.4 to 39.4 °C
26 | Cc1c(C(=O)Nc2ccc(N3CCC(N4CCOCC4)CC3)c(C#N)c2)cnn1-c1ccc(Cl)c(Cl)c1 | 242 °C
27 | O=C(C(=O)N1CCC(N2CCCCC2)CC1)c1ccc2n1Cc1ccccc1N(C(=O)c1ccc(C3CCCCC3)cc1)C2 | 190 to 195 °C
28 | FC(F)(F)c1cc2c(cc1Cl)C(Cl)Cc1ccccc1S2 (stereo not drawn) | 100 to 102 °C
29 | O=C(NC(=O)c1ccccc1F)NC1CN2CCC1CC2 (stereo not drawn) | 187 to 188 °C
30 | Cc1c(-c2ccc(OC3CCCC3)cc2)[nH]c2ccc(OCc3ccccc3)cc12 | 161 to 167 °C
31 | CN(CCN1C(=O)c2ccccc2C1=O)C(c1ccccc1)c1ccccc1 | 130 to 131 °C
32 | Cc1cccc(NC(=O)NCC(=O)N(CC(=O)N2CCSC(C)(C)C2)c2ccccc2)c1 | 186 °C
33 | O=S1(=O)c2cccc3cccc(c23)N1CCCN1CC=C(c2ccc(Cl)cc2)CC1 | 111 °C
34 | CC(c1oc2ccc(Br)cc2c(=O)c1-c1ccccc1F)n1cnc2c(N)ncnc21 (stereo not drawn) | 256 to 258 °C
35 | CCCCCCc1cc2c(s1)-n1c(C)nnc1CN=C2c1ccccc1Cl | 111 to 113 °C
36 | CCCOC(=O)C1=C(C)NC(CO)=C(C(=O)OC)C1c1ccccc1C#N (stereo not drawn) | 149 to 152 °C
37 | CC1N=C(c2ccccc2)NC1=O (stereo not drawn) | 165 °C
38 | Cc1cc(CSCCC(=C(N)NCCc2cccc(O)c2)[N+](=O)[O-])sc1CN(C)C | 114 to 115 °C
39 | O=S(=O)(Nc1ccc2c(OCc3ccc(-c4ccccc4)cc3Cl)cccc2c1)C(F)(F)F | 131 to 134 °C
40 | COc1ccc(S(=O)(=O)Nc2ccc(C)cc2)c2c1[nH]c1ccccc12 | 199 to 203 °C
41 | Cc1[nH]cc2c(=O)n(-c3ccc(Cl)cc3)nc-2c1-c1cccc(-n2cnnc2)c1 | > 350 °C
42 | Cc1cn(N=Cc2cccnc2)c(=O)[nH]1 | 200 to 202 °C
43 | Clc1cccc(-c2nc(Cl)c3ccccc3n2)c1 | 157 to 158 °C
44 | CNC(=O)CCCCc1csc(NC(N)=NCC(F)(F)F)n1 | 122 to 126 °C
45 | COc1ccc(CN(C)CCc2ccc(NC(=O)c3cccc4c(=O)c5cc(F)ccc5sc34)cc2)cc1OC | 205 °C
46 | Cc1ccc(S(=O)(=O)OCCC2CCN(C(c3ccccc3)(c3ccccc3)c3ccccc3)CC2)cc1 | 176 °C

Row | Structure (SMILES) | melting point
47 | Nc1nc(=O)c2ncn(C3OC4COP(=O)(O)OC4C3O)c2[nH]1 (stereo not drawn) | 91.6 to 93.7 °C
48 | Nc1ccc(C#CCCN2CCC(O)(c3ccc(Cl)cc3)CC2)cc1 | 134 to 136 °C
49 | OCCCC(c1c[nH]c2ccccc12)c1c[nH]c2ccccc12 | 110 to 115 °C
50 | CC(C(=O)NCC(COC(=O)C(C)(C)C)Cc1ccc(C(C)(C)C)cc1)c1ccc(NS(C)(=O)=O)cc1 (stereo not drawn) | 97 to 100 °C
51 | Cn1nc(COc2cccc3c2CN(C2CCC(=O)NC2=O)C3=O)cc1CN1CCOCC1 (stereo not drawn) | 125 to 127 °C
52 | Cc1cccc(C=CC(=O)O)c1[N+](=O)[O-] | 230 to 235 °C
53 | OCC1OC(n2c(Cl)nc3cc(Cl)c(F)cc32)C(O)C1O (stereo not drawn) | 170 to 172 °C
54 | COc1ccc(Cl)cc1NC(=O)C1CCNCC1 | 124 to 126 °C
55 | CS(=O)(=O)c1ccccc1S(N)(=O)=O | 249 to 250 °C
56 | CC(=O)OC1CSC(Oc2cncc(-c3ccc(C#N)c(C)c3)c2)C(OC(C)=O)C1OC(C)=O (stereo not drawn) | 74 to 80 °C
57 | COc1c(CC#N)c2c(c3c1OC(C)(C)C3)C(c1ccccc1)=NC(C)(C)C2 | 95 to 96 °C
58 | N#CC(Br)(Br)c1ccccn1 | 59 to 61 °C
59 | CC(C)c1nc(N)cc(=O)[nH]1 | 229 to 230 °C
60 | CC(Cl)(Cl)C(Cl)(Cl)c1cccc([N+](=O)[O-])c1 | 75.5 to 77 °C
61 | Cc1cc(C(C)(C)C)c(O)c(N)c1N | 129 to 136 °C
62 | O=C(O)c1c(-c2cnccn2)ssc1=S | 225 °C
63 | CC(=O)Nc1ncc(C)cc1C(C)=O | 99 to 100 °C
64 | CONS(=O)(=O)c1ccc(Cl)c(C(F)(F)F)c1 | 88 to 90.5 °C
65 | Cn1c(C(F)(F)F)cc(=O)n(-c2c(F)cc(Cl)c3cc(CO)oc23)c1=O | 198 to 199 °C
66 | O=C(O)c1nccc(Cl)c1O | 228 °C
67 | COC(CN(C)C(=O)Nc1ccc(Oc2cccc(C(F)(F)F)c2)cc1)OC | 86 to 88 °C
68 | c1ccc(OC(Oc2ccccc2)Oc2c3ccccc3cc3ccccc23)cc1 | 90 to 92 °C

Second part, the compound after the results:

Row | melting point | Structure (SMILES)
69 | 124 to 126 °C | O=Cc1cccc(-c2nc3sccn3c2-c2ccnc(N[C@@H]3CCCN(S(=O)(=O)c4ccc(Cl)cc4)C3)n2)c1
70 | 200 to 201 °C | COC(=O)c1ccc2ncc(C3CCN(C)CC3)c-2[nH]1
71 | > 250 °C | O=C(O)/C=C/c1ccc(-c2nc3c(=O)n(CCC4CCCCC4)c(=O)n(CCC4CCCCC4)c3[nH]2)cc1
72 | 130 to 131 °C | CN1CCN(c2ccccc2CC2CCN(c3ccc(F)c(F)c3)C2=O)CC1 (stereo not drawn)
73 | 255 to 256 °C | O=C(O)c1ccc(Oc2ccc3c(c2)CCN(C2CCN(C4CCC4)CC2)C3=O)cc1
74 | 159 to 160 °C | COc1ccc(S(=O)(=O)Nc2c(Nc3ccccc3)ncnc2OC)cc1
75 | 148 to 150 °C | CCN(CC)CC(O)CNC(=O)c1c(OC)c2ccccc2n1-c1ccccc1 (stereo not drawn)
76 | 85 to 88 °C | CCOc1cc(OC)c(C(=O)C=Cc2ccc(OC)cc2)c(OP(=O)(O)O)c1
77 | 101 to 106 °C | O=c1c2ccccc2n(CCCCCl)c2ccc(Cl)cc12
78 | 68 to 70 °C | CC(C(=O)O)c1ccc(Oc2ccc(F)cc2)c(Cl)c1 (stereo not drawn)
79 | 235 to 237 °C | COC(=O)C(C)(C)c1ccc(C(=O)Nc2cn3c4c(ccc3n2)OCC4)cc1
80 | 170 to 171 °C | COc1cc(-c2cc(=O)c3ccc(OCC(O)CN4CCN(c5ccccc5)CC4)cc3o2)cc(OC)c1OC (stereo not drawn)
81 | 130 to 131 °C | CC(=O)OCC(CCc1nc2nc(N)nc(SCCC(=O)c3ccccc3)c2[nH]1)COC(C)=O
82 | 241 to 245 °C | O=C(O)c1cc(-c2ccnc(Nc3cccc(C(F)(F)F)c3)n2)ccn1
83 | 120 °C | Cc1cccc(-c2nc3ccccn3c2-c2ccnc(-c3ccc(OCc4cn(C)cn4)cc3)c2)n1
84 | 203 to 205 °C | COc1ccc(-c2c(-c3ccccc3)nn3ccccc23)nn1
85 | 215 to 217 °C | CC(C)Nc1cccnc1N1CCN(C(=O)c2ccc(C(=O)O)cc2)CC1
86 | 160 to 162 °C | COc1ccc(C(=O)c2ccc([N+](=O)[O-])cc2)cc1OC
87 | 95 to 100 °C | O=C(NCC1(O)CCCCCC1)c1cc(-c2cccnc2C(=O)O)ccc1Cl
88 | 116 to 117 °C | COc1cc2c(cc1OCc1ccccc1)CCN(Cc1cc(F)cc(F)c1)C2
89 | 209 to 210 °C | O=c1[nH]c(=O)n(CCCCN2CCC(OC(c3ccccc3)c3ccccc3)CC2)c2ccc(Cl)cc12
90 | 168 to 188 °C | Cc1cscc1-c1cccc2c1ccn2-c1ccnc(NC2CCC(C(=O)N3CCC(O)CC3)CC2)n1 (stereo not drawn)
91 | 125 to 127 °C | Oc1ccccc1OCCCN1CCC(=C(c2ccc(F)cc2)c2ccc(F)cc2)CC1
92 | 168 to 170 °C | Cn1c(=O)c(Oc2ccc(F)cc2F)cc2cnc(Cl)cc21
93 | 123 °C | COc1ccc([C@H](CC(=O)O)n2ccn(CCCc3ccc4c(n3)NCCC4)c2=O)cn1
94 | 157 to 160 °C | O=C(Nc1ccccc1)C(=O)c1c2n(c3ccccc13)CCNCC2
95 | 125 to 126 °C | CCc1ccc2c(c1)CC(=O)N2c1c(C)cccc1Cl
96 | 98 to 99 °C | CC(=O)OCc1nc(C#N)cc(OCc2ccccc2)c1OCc1ccccc1
97 | 261 to 262 °C | Cn1c(=O)c(-c2ccc(Cl)cc2Cl)cc2c3cc(-c4csc(CO)n4)ccc3n(C)c21
98 | 108 to 109 °C | COc1ccc(-c2cc(CCCN3CCN(C)CC3)c(=O)n(Cc3ccc(F)cc3)n2)cc1F
